# In PubChem BioAssay AID330 (DTP/NCI, 2004):
# Values joined by “and” are separate entries in the source; they are usually repeats but may differ in a detail not shown here. Equal entries are not always repeated. Toxic doses and inconclusive results are not listed. Peptide text beside a SMILES is read from it.
# Tested on: P388 leukemia ip, CD2F1 mice, survival T/C
# Experiment: NCI In Vivo Anticancer Drug Screen. Data for tumor model P388 Leukemia (intraperitoneal) in CD2F1 (CDF1) mice
# Settings: endpoint: median survival time, higher = longer survival
# Procedure, shortened: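 Mice carrying the transplanted tumor received test compound or vehicle. Survival was recorded in each group, and the value is the treated-group measurement divided by that of the vehicle-treated control group.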
# [1] = dose: 100.0 mg/kg/injection, schedule: Q04DX002 (ip), vehicle: saline with Tween-80
# [2] = dose: 200.0 mg/kg/injection, schedule: Q04DX002 (ip), vehicle: saline with Tween-80
# [3] = dose: 400.0 mg/kg/injection, schedule: Q04DX002 (ip), vehicle: saline with Tween-80
# [4] = dose: 100.0 mg/kg/injection, schedule: Q01DX001 (ip), vehicle: saline with Tween-80
# [5] = dose: 200.0 mg/kg/injection, schedule: Q01DX001 (ip), vehicle: saline with Tween-80
# [6] = dose: 400.0 mg/kg/injection, schedule: Q01DX001 (ip), vehicle: saline with Tween-80
# [7] = dose: 12.5 mg/kg/injection, schedule: Q01DX005 (ip), vehicle: Klucel (hydroxypropylcellulose) (HPC)
# [8] = dose: 50.0 mg/kg/injection, schedule: Q01DX005 (ip), vehicle: Klucel (hydroxypropylcellulose) (HPC)
# [9] = dose: 100.0 mg/kg/injection, schedule: Q01DX005 (ip), vehicle: Klucel (hydroxypropylcellulose) (HPC)
# [10] = dose: 60.0 mg/kg/injection, schedule: Q01DX005 (ip), vehicle: saline with Tween-80
# [11] = dose: 120.0 mg/kg/injection, schedule: Q01DX005 (ip), vehicle: saline with Tween-80
# [12] = dose: 240.0 mg/kg/injection, schedule: Q01DX005 (ip), vehicle: saline with Tween-80
# [13] = dose: 50.0 mg/kg/injection, schedule: Q01DX009 (ip), vehicle: saline with Tween-80
# [14] = dose: 50.0 mg/kg/injection, schedule: Q01DX009 (ip), vehicle: Klucel (hydroxypropylcellulose) (HPC)
# [15] = dose: 100.0 mg/kg/injection, schedule: Q01DX009 (ip), vehicle: Klucel (hydroxypropylcellulose) (HPC)
# [16] = dose: 200.0 mg/kg/injection, schedule: Q01DX009 (ip), vehicle: Klucel (hydroxypropylcellulose) (HPC)
# [17] = dose: 100.0 mg/kg/injection, schedule: Q01DX009 (ip), vehicle: saline with Tween-80
# [18] = dose: 200.0 mg/kg/injection, schedule: Q01DX009 (ip), vehicle: saline with Tween-80
# [19] = dose: 50.0 mg/kg/injection, schedule: Q01DX005 (ip), vehicle: saline with Tween-80
# [20] = dose: 100.0 mg/kg/injection, schedule: Q01DX005 (ip), vehicle: saline with Tween-80
# [21] = dose: 200.0 mg/kg/injection, schedule: Q01DX005 (ip), vehicle: saline with Tween-80
# [22] = dose: 100.0 mg/kg/injection, schedule: Q04DX003 (ip), vehicle: Klucel (hydroxypropylcellulose) (HPC)
# [23] = dose: 200.0 mg/kg/injection, schedule: Q04DX003 (ip), vehicle: Klucel (hydroxypropylcellulose) (HPC)
# [24] = dose: 400.0 mg/kg/injection, schedule: Q04DX003 (ip), vehicle: Klucel (hydroxypropylcellulose) (HPC)
structure (smiles),measurement,setting,value
[Cl][Pt+2][Cl].[NH-]C1CCC1.[NH2-],T/C,"dose: 1.5 mg/kg/injection, schedule: Q01DX005 (ip), vehicle: saline",155 % of control and 167 % of control
same,T/C,"dose: 3.0 mg/kg/injection, schedule: Q01DX005 (ip), vehicle: saline",155 % of control and 189 % of control and 190 % of control
same,T/C,"dose: 12.0 mg/kg/injection, schedule: Q01DX005 (ip), vehicle: saline",214 % of control
CC(=O)OCC1OC(Nc2[nH]c(=O)n(C)c(=O)c2N=O)C(OC(C)=O)C(OC(C)=O)C1OC(C)=O (stereo unspecified),T/C,[1],104 % of control
same,T/C,[2],103 % of control
same,T/C,[3],102 % of control
COC(=O)Nc1cn2c(n1)sc1ccccc12,T/C,[4],100 % of control
same,T/C,[5],96 % of control
same,T/C,[6],91 % of control
O=CNC(Cc1cccc(N(CCCl)CCCl)c1)C(=O)O (stereo unspecified),T/C,"dose: 25.0 mg/kg/injection, schedule: Q01DX009 (ip), vehicle: saline sonified",95 % of control
Nc1nc(Cl)c2[nH]c(Cl)nc2n1,T/C,[7],104 % of control
same,T/C,"dose: 25.0 mg/kg/injection, schedule: Q01DX005 (ip), vehicle: Klucel (hydroxypropylcellulose) (HPC)",102 % of control
same,T/C,[8],100 % of control and 96 % of control
same,T/C,[9],99 % of control
CC1=C(C(=O)Nc2ccccc2)C(c2ccccc2)C(C(=O)Nc2ccccc2)=C(C)N1,T/C,[1],95 % of control
same,T/C,[2],94 % of control
same,T/C,[3],94 % of control
COc1ccc(SCC(=O)c2ccc([N+](=O)[O-])o2)cc1,T/C,"dose: 50.0 mg/kg/injection, schedule: Q01DX009 (ip), vehicle: suspension in saline",114 % of control
same,T/C,"dose: 100.0 mg/kg/injection, schedule: Q01DX009 (ip), vehicle: suspension in saline",104 % of control
CC(NNC(=S)N1CCC(c2ccccc2)CC1)c1ccc2ccccc2n1 (stereo unspecified),T/C,[8],97 % of control
same,T/C,[9],105 % of control
CC1=CC2C3C(=O)NC(=O)C3C1C1C3C(=O)NC(=O)C3C21 (stereo unspecified),T/C,[10],98 % of control
same,T/C,[11],104 % of control
same,T/C,[12],95 % of control
CC(=O)NN,T/C,[13],104 % of control
same,T/C,"dose: 50.0 mg/kg/injection, schedule: Q04DX003 (ip), vehicle: saline",105 % of control
same,T/C,"dose: 100.0 mg/kg/injection, schedule: Q04DX003 (ip), vehicle: saline",100 % of control
same,T/C,"dose: 200.0 mg/kg/injection, schedule: Q04DX003 (ip), vehicle: saline",100 % of control
CC1(C)OP2(O)(OC(C)(C)c3ccccc32)c2ccccc21,T/C,[14],99 % of control
same,T/C,[15],102 % of control
same,T/C,[16],104 % of control
CCOC(=O)c1ccc(NC(=O)CS)cc1,T/C,"dose: 25.0 mg/kg/injection, schedule: Q01DX009 (ip), vehicle: saline with Tween-80",98 % of control
same,T/C,[13],99 % of control
same,T/C,[17],102 % of control
same,T/C,[18],108 % of control
CNC(=O)N(Cl)c1ccc(Cl)cc1,T/C,"dose: 50.0 mg/kg/injection, schedule: Q01DX009 (ip), vehicle: saline",98 % of control
same,T/C,"dose: 100.0 mg/kg/injection, schedule: Q01DX009 (ip), vehicle: saline",96 % of control
same,T/C,"dose: 200.0 mg/kg/injection, schedule: Q01DX009 (ip), vehicle: saline",97 % of control
CC(C)(C)C1=CC(N2CCOCC2)(C(C)(C)C)C=C(C(C)(C)C)C1=O,T/C,[19],94 % of control
same,T/C,[20],103 % of control
same,T/C,[21],94 % of control
O=C1NC(=O)N(c2ccc([N+](=O)[O-])cc2)C1=O,T/C,[14],86 % of control
same,T/C,[15],89 % of control
same,T/C,[16],86 % of control (2×) and 93 % of control
CC(=O)OCc1c(COC(C)=O)c(-c2ccccc2)n2c1CCC2,T/C,"dose: 12.5 mg/kg/injection, schedule: Q01DX009 (ip), vehicle: Klucel (hydroxypropylcellulose) (HPC)",110 % of control
same,T/C,[14],87 % of control
CCOP(=O)(CC(=O)NCc1cc(C(C)(C)C)c(O)c(C(C)(C)C)c1)OCC,T/C,[13],100 % of control
same,T/C,[17],93 % of control
same,T/C,[18],96 % of control
CC(C)CC(N)C(=O)NC(Cc1cnc[nH]1)C(=O)O (stereo not drawn) (H-Leu-His-OH; configuration not given here),T/C,"dose: 60.0 mg/kg/injection, schedule: Q01DX005 (ip), vehicle: saline",97 % of control
same,T/C,"dose: 120.0 mg/kg/injection, schedule: Q01DX005 (ip), vehicle: saline",106 % of control
same,T/C,"dose: 240.0 mg/kg/injection, schedule: Q01DX005 (ip), vehicle: saline",104 % of control
CCCCOC(=O)c1c2nc3c(C(=O)OCCCC)ccc(C)c3oc-2c(C)c(=O)c1NC(C)=O,T/C,[22],87 % of control
same,T/C,[23],90 % of control
same,T/C,[24],89 % of control
COC(=O)C1CC2C(=O)N(C)C=CC12 (stereo unspecified),T/C,[1],104 % of control
same,T/C,[2],98 % of control
same,T/C,[3],102 % of control
CC/C(=N/OC)C(=O)OC,T/C,[19],93 % of control
same,T/C,[20],99 % of control
same,T/C,[21],100 % of control
CCn1nnnc1Nc1ccccc1,T/C,[14],120 % of control
same,T/C,[15],123 % of control
same,T/C,[16],113 % of control
O=C1C(=O)N(c2ccc([N+](=O)[O-])cc2)C(=O)N1c1ccc([N+](=O)[O-])cc1,T/C,[10],112 % of control
same,T/C,[11],95 % of control
same,T/C,[12],95 % of control
CC1COC2(CC1OC(=O)/C=C/c1ccccc1)OC1CC(C(=O)OC3OC(C)C(O)C(O)C3OC3OC(C)C(O)C(O)C3O)CCC1C21CO1 (stereo unspecified),T/C,"dose: 1.88 mg/kg/injection, schedule: Q01DX005 (ip), vehicle: saline + alcohol",106 % of control
same,T/C,"dose: 3.75 mg/kg/injection, schedule: Q01DX005 (ip), vehicle: saline + alcohol",106 % of control
same,T/C,"dose: 7.5 mg/kg/injection, schedule: Q01DX005 (ip), vehicle: saline + alcohol",111 % of control and 118 % of control
same,T/C,"dose: 15.0 mg/kg/injection, schedule: Q01DX005 (ip), vehicle: saline + alcohol",118 % of control
same,T/C,"dose: 60.0 mg/kg/injection, schedule: Q01DX005 (ip), vehicle: saline + alcohol",153 % of control
Nc1ccccc1SC1CC(=O)N(c2ccc(Cl)cc2)C1=O (stereo unspecified),T/C,[17],105 % of control
same,T/C,[18],110 % of control
same,T/C,"dose: 400.0 mg/kg/injection, schedule: Q01DX009 (ip), vehicle: saline with Tween-80",100 % of control
Clc1ccccc1CN1COc2c(ccc3ccccc23)C1,T/C,[22],95 % of control
same,T/C,[23],100 % of control
same,T/C,[24],104 % of control
O=c1c(N=Nc2ccccc2Cl)c(O)n(-c2ccccc2Cl)c(=S)n1-c1ccc(Cl)cc1,T/C,"dose: 100.0 mg/kg/injection, schedule: Q01DX001 (ip), vehicle: Klucel (hydroxypropylcellulose) (HPC)",109 % of control
same,T/C,"dose: 200.0 mg/kg/injection, schedule: Q01DX001 (ip), vehicle: Klucel (hydroxypropylcellulose) (HPC)",104 % of control
same,T/C,"dose: 400.0 mg/kg/injection, schedule: Q01DX001 (ip), vehicle: Klucel (hydroxypropylcellulose) (HPC)",96 % of control
FC(F)(F)C1(C(F)(F)F)OI2(Br)(OC(C(F)(F)F)(C(F)(F)F)c3ccccc32)c2ccccc21,T/C,"dose: 6.25 mg/kg/injection, schedule: Q01DX005 (ip), vehicle: Klucel (hydroxypropylcellulose) (HPC)",99 % of control
same,T/C,[7],97 % of control
O=C(CC(O)(C(F)(F)F)C(F)(F)F)c1ccco1,T/C,"dose: 33.0 mg/kg/injection, schedule: Q01DX009 (ip), vehicle: saline with Tween-80",110 % of control
O=[N+]([O-])c1ccc2c(c1)C1CN(Cc3ccccc31)C2 (stereo unspecified),T/C,[4],90 % of control
same,T/C,[5],89 % of control
same,T/C,[6],97 % of control
S=c1nc(N2CCOCC2)n(/C=C/c2ccccc2)c(=S)n1C(=N/C=C/c1ccccc1)N1CCOCC1,T/C,"dose: 25.0 mg/kg/injection, schedule: Q04DX003 (ip), vehicle: saline with Tween-80",113 % of control
same,T/C,"dose: 50.0 mg/kg/injection, schedule: Q04DX003 (ip), vehicle: saline with Tween-80",89 % of control
same,T/C,"dose: 100.0 mg/kg/injection, schedule: Q04DX003 (ip), vehicle: saline with Tween-80",91 % of control and 97 % of control
same,T/C,"dose: 400.0 mg/kg/injection, schedule: Q04DX003 (ip), vehicle: saline with Tween-80",87 % of control
